For assay [1], the system named is p-phenylquinone-induced writhing in mice. Nature of the assay: animal or person. Format: in vivo, mouse (male ddY mice). The settings on record: sc; for ED50: Mus musculus, read-out: Analgesic effect, phenylquinone-induced writhing, ED50; for Analgesic effect, phenylquinone-induced writhing at 320 μg/kg (analgesic-effective animals/all animals): mouse, in vivo.
The next assay deals with T1, κ-receptors (Cavia porcellus, UniProt P41144).
T1 construct: A raw preparation from brain membrane was made; tissue Japan SLC; host or cells: guinea pig whole brain without cerebellum, crude membranes
Nature of the assay: biochemical. Format: binding, guinea pig (male Hartley).

Another assay deals with T2, μ-receptors (Cavia porcellus, UniProt A0ACM8Q262).
T2 construct: [3H]DAGO (DAMGO) displacement
On the set-up: species or system guinea pig (male Hartley). The settings on record: read-out: Binding to opioid receptors, μ (IC50).

The results in this text go back to US5021413A (priority 1988, dated 1991).

Structures are written as SMILES. Where a name gives a salt, the structure may show the parent alone.

T2 sequence (A0ACM8Q262 1-400): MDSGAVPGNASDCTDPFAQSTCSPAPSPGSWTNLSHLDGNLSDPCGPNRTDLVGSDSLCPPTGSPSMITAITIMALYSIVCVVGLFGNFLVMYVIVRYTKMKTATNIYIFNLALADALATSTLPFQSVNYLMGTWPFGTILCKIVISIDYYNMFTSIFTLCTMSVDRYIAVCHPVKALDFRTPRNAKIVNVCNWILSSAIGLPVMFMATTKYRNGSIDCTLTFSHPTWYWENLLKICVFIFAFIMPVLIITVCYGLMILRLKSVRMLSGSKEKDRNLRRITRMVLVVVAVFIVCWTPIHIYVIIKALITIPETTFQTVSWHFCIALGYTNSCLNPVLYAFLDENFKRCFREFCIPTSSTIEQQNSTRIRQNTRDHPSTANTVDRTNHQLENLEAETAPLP
T1 sequence (P41144 whole entry): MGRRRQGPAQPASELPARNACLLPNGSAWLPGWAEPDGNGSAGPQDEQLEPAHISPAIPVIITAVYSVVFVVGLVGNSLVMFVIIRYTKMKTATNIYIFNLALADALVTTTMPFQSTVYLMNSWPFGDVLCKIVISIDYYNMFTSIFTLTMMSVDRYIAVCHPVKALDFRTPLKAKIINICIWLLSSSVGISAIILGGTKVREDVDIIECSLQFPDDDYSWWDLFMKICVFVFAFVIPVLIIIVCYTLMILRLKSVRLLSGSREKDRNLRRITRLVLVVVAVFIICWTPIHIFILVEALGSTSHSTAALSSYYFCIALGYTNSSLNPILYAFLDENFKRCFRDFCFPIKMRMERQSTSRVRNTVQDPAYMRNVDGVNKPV

Usually ED50 stands for the midpoint of the dose-response relation. As usually defined, the IC50 is the point on the concentration scale where inhibition reaches its midpoint. As to `O=C1C[C@H](C(=O)N2CCCC[C@H]2CN2CCCC2)c2cc(Cl)c(Cl)cc21` (relative stereo) [Example 4-D1, 1-[(1S*)-5,6-dichloro-3-oxoindan-1-carbonyl)-(2S*)-2-pyrrolidin-1-ylmethyl)piperidine], in assay [1], the ED50 turned out to be 3.43 µg/kg. For the same molecule, the IC50 on κ-receptors came out at 1.4 nM; on μ-receptors it was 531 nM.
Turning to `O=C1C[C@@H](C(=O)N2CCCC[C@H]2CN2CCCC2)c2cc(Cl)c(Cl)cc21` (relative stereo) [Example 4-D2, 1-[(1R*)-5,6-dichloro-3-oxoindan-1-carbonyl](2S*)-2-(pyrrolidin-1-ylmethyl)piperidine], the ED50 in assay [1] was found to be 270 µg/kg. Besides, at κ-receptors, the IC50 was found to be 366 nM.
Consider `O=C([C@H]1CCc2cc(Cl)c(Cl)cc21)N1CCSC[C@@H]1CN1CCCC1` (relative stereo) [Example 41-D1, 4-[(1S*)-5,6-dichloroindan-1-carbonyl]-(3S*)-3-(pyrrolidin-1-ylmethyl)thiomorpholine], for which the ED50 in assay [1] came to 1.3 µg/kg. Besides, the IC50 against κ-receptors was 0.67 nM; on μ-receptors, 698 nM.
For the molecule `O=C1CC(C(=O)N2CCCCC2CN2CCCC2)c2cc(Cl)c(Cl)cc21` (stereo not shown) [Example 1, 1-(5,6-dichloro-3-oxoindan-1-carbonyl)-2-(pyrrolidin-1-yl-methyl)piperidinehydrochloride], in assay [1], the ED50 is 6.2 µg/kg. Also, the IC50 against κ-receptors is 1.75 nM; at μ-receptors, 1070 nM.
The like results for `O=C1C[C@H](C(=O)N2CCCC[C@H]2CN2CCCC2)c2cc(Cl)c(Cl)cc21` [Example 2-E1, 1-[(1S)-5,6-dichloro-3-oxoindan-1-carbonyl]-(2S)-2-(pyrrolidin-1-ylmethyl)piperidine] were, in that order, 1.73 µg/kg, 0.9 nM and 232 nM.
`O=C1C[C@@H](C(=O)N2CCCC[C@H]2CN2CCCC2)c2cc(Cl)c(Cl)cc21` [Example 2-E2, 1-[(1R)-5,6-dichloro-3-oxoindan-1-carbonyl]-(2S)-2-(pyrrolidin-1-ylmethyl)piperidine]: the ED50 in assay [1] was 320 µg/kg. Further, the IC50 at κ-receptors came to 258 nM.
For the molecule `O=C(Cc1ccc(Cl)c(Cl)c1)N1CCSCC1CN1CCCC1` (stereo not shown) [Example 17, 4-(3,4-dichlorophenylacetyl)-3-(pyrrolidin-1-ylmethyl)thiomorpholine hydrochloride], the “Analgesic effect, phenylquinone-induced writhing at 320 μg/kg (analgesic-effective animals/all animals)” value in assay [1] is reported as 5/5. At κ-receptors, this molecule came in with a 50% inhibitory concentration (IC50) of 1.1 nM.
For the molecule `O=C1CC(C(=O)N2CCSCC2CN2CCCC2)c2cc(Cl)c(Cl)cc21` (stereo not shown) [Example 36, 4-(5,6-dichloro-3-oxoindan-1-carbonyl)-3-(pyrrolidin-1-ylmethyl)thiomorpholine hydrochloride], the ED50 in assay [1] was 3.4 µg/kg. The IC50 against κ-receptors was 2.4 nM; at μ-receptors, 1140 nM.
On to `CN1CC[C@]23c4c5ccc(O)c4O[C@H]2[C@@H](O)C=C[C@H]3[C@H]1C5.Cl` [Morphine HCl, reference compound], for which the “Analgesic effect, phenylquinone-induced writhing at 320 μg/kg (analgesic-effective animals/all animals)” value in assay [1] is 2/5.
